{"source": "patent US9790169B2", "about": "“IDO inhibitors” (BRISTOL-MYERS SQUIBB COMPANY, priority 2015, dated 2017)", "note": "pIC50: −log10 of the molar value.", "data": [{"biological_target": "human IDO1 (Homo sapiens, UniProt P14902)", "sequence (P14902 whole entry)": "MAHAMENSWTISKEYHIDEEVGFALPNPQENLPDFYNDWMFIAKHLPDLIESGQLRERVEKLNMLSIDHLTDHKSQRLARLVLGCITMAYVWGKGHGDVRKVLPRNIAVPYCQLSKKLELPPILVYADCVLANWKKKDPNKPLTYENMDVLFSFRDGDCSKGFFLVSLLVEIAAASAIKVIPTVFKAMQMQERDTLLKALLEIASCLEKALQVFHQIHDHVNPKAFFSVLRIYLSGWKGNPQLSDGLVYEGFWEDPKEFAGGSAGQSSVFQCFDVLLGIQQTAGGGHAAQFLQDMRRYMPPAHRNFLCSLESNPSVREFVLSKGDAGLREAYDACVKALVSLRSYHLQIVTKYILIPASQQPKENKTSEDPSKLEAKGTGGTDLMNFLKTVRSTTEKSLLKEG", "assay": "Assessment of human IDO-1 inhibitory activity in HEK cells (human IDO1/HEK293 cells, kynurenine read-out with Ehrlich reagent, absorbance 490 nm)", "assay_type": "cell-based", "set-up": "expressed in transfected cells", "details": "HEK Human IDO-1 cellular assay", "how_it_was_run": "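Kynurenine output from stably IDO1-transfected HEK293 cells (10,000/well, phenol red-free RPMI, 10% FBS) after 20 h compound exposure at 37 °C. The reaction was stopped with 0.2% TCA and heated 30 min at 50 °C, then the supernatant was mixed with Ehrlich reagent and read at 490 nm. IC50 was set against DMSO and a 500 nM reference standard as 0 and 100% inhibition.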", "values": [{"smiles": "C[C@@H]1CN(c2ccc(C(C)(C)CC(=O)O)cc2Nc2ccc(Cl)cc2)C[C@H](C)O1", "note": "[Example 733, 3-(3-((4-chlorophenyl)amino)-4-((2S,6R)-2,6-dimethylmorpholino)phenyl)-3-methylbutanoic acid]", "pIC50": "> 7.30"}, {"smiles": "CCN(c1ccc(C(C)CC(=O)O)cc1Nc1ccc2c(c1)OC(F)(F)O2)C1CCOCC1", "note": "(single isomer, unassigned) [Example 616, 3-(3-((2,2-difluorobenzo[d] [1,3]dioxol-5-yl)amino)-4-(ethyl(tetrahydro-2H-pyran-4-yl)amino)phenyl)butanoic acid]", "pIC50": "> 8.30"}, {"smiles": "CCC(CC(=O)O)c1ccc(N(CC2CC2)C2CCOCC2)c(Nc2ccc(Cl)cc2)c1", "note": "(single isomer, unassigned) [Example 702, 3-(3-((4-chlorophenyl)amino)-4-((cyclopropylmethyl) (tetrahydro-2H-pyran-4-yl)amino)phenyl)pentanoic acid]", "pIC50": "> 8.30"}, {"smiles": "COCC(CC(=O)O)c1ccc(N(CC(C)C)C2CCCCC2)c(NC(=O)Cc2cc(C)on2)c1", "note": "(single isomer, unassigned) [Example 1234, 3-(4-(Cyclohexyl(isobutyl)amino)-3-(2-(5-methylisoxazol-3-yl)acetamido)phenyl)-4-methoxybutanoic acid]", "pIC50": "< 7.30"}, {"smiles": "CCC(CC(=O)O)c1ccc(N(CC(C)C)C2CCCCC2)c(NC(=O)Cc2ccc(Cl)cc2F)c1", "note": "(single isomer, unassigned) [Example 1096 E1]", "pIC50": "> 8.30"}, {"smiles": "CC[C@@H](CC(=O)O)c1ccc(N2CCOC[C@@H]2C(C)C)c(NC(=O)Nc2cc(C)on2)c1", "note": "(single isomer, unassigned) [Example 77]", "pIC50": "< 7.30"}, {"smiles": "CC[C@H](CC(=O)O)c1ccc(N(CC)C2CCOCC2)c(NC(=O)Nc2cc(C)on2)c1", "note": "(single isomer, unassigned) [Example 534]", "pIC50": "< 7.30"}, {"smiles": "CC[C@@H](CC(=O)O)c1ccc(N(CC)C2CCOCC2)c(Nc2ccc3c(c2)OCCO3)c1", "note": "(single isomer, unassigned) [Example 486]", "pIC50": "< 7.30"}, {"smiles": "CCC(CC(=O)O)c1ccc(N2CCC[C@H]2C(C)(C)O)c(Nc2ccc(C#N)cc2)c1", "note": "(single isomer, unassigned) [Example 825]", "pIC50": "> 7.30"}, {"smiles": "COCC(CC(=O)O)c1cc(F)c(N(CC(C)C)C2CCCCC2)c(NC(=O)Nc2ccc(OC)cc2F)c1", "note": "(single isomer, unassigned) [Example 1152, 3-(4-(Cyclohexyl(isobutyl)amino)-3-fluoro-5-(3-(2-fluoro-4-methoxyphenyl)ureido)phenyl)-4-methoxybutanoic acid]", "pIC50": "> 8.30"}, {"smiles": "CC[C@H](CC(=O)O)c1ccc(N(CC2CC2)CC(C)(C)O)c(Nc2ccc(C#N)cc2)c1", "note": "(single isomer, unassigned) [Example 272]", "pIC50": "> 8.30"}, {"smiles": "CCc1ccc(Nc2cc(C(C)CC(=O)O)ccc2N2C[C@@H](C)O[C@@H](C)C2)cc1", "note": "(single isomer, unassigned) [Example 740]", "pIC50": "< 7.30"}, {"smiles": "CC[C@@H](CC(=O)O)c1ccc(N2CCC[C@@H]2C(C)(C)O)c(Nc2ccc(C#N)cc2)c1", "note": "(single isomer, unassigned) [Example 771]", "pIC50": "> 7.30"}, {"smiles": "CC[C@@H](CC(=O)O)c1ccc(N2CCOC[C@@H]2C(C)C)c(NC(=O)Nc2ccc(Cl)cc2F)c1", "note": "(single isomer, unassigned) [Example 75]", "pIC50": "> 7.30"}, {"smiles": "COCC(CC(=O)OC)c1ccc(N(CC(C)C)C2CCCCC2)c(NC(=O)Nc2ccc(C)cc2)c1", "note": "(racemic) [Example 1223, (+/−)-Methyl 3-(4-(cyclohexyl(isobutyl)amino)-3-(3-(p-tolyl)ureido)phenyl)-4-methoxybutanoate]", "pIC50": "< 7.30"}, {"smiles": "COCC(CC(=O)O)c1ccc(N(CC2CC2)C2CCOCC2)c(Nc2ccc(C#N)cc2)c1", "note": "(single isomer, unassigned) [Example 691, 3-(3-((4-cyanophenyl)amino)-4-((cyclopropylmethyl) (tetrahydro-2H-pyran-4-yl)amino)phenyl)-4-methoxybutanoic acid]", "pIC50": "> 8.30"}, {"smiles": "CCN(c1ccc(C(C)CC(=O)O)cc1Nc1cnc(C)nc1)C1CCOCC1", "note": "(single isomer, unassigned) [Example 636, 3-(4-(ethyl(tetrahydro-2H-pyran-4-yl)amino)-3-((2-methylpyrimidin-5-yl)amino)phenyl)butanoic acid]", "pIC50": "< 7.30"}, {"smiles": "Cc1nc2ccc(Nc3cc(C(C)(C)CC(=O)O)ccc3N(CC(C)C)CC(C)C)cc2s1", "note": "[Example 146, 3-(4-(diisobutylamino)-3-((2-methylbenzo[d]thiazol-6-yl)amino)phenyl)-3-methylbutanoic acid]", "pIC50": "< 7.30"}, {"smiles": "CCC(CC(=O)O)c1cc(F)c(N(CC(C)C)CC(C)C)c(Nc2ccc(F)cc2)c1", "note": "(single isomer, unassigned) [Example 100, 3-(4-(diisobutylamino)-3-fluoro-5-((4-fluorophenyl)amino)phenyl)pentanoic acid]", "pIC50": "> 8.30"}, {"smiles": "CCC(CC(=O)O)c1cc(F)c(N(CC(C)C)CC(C)C)c(NC(=O)Cc2ccc(C)cc2)c1", "note": "(single isomer, unassigned) [980-1]", "pIC50": "> 8.30"}, {"smiles": "CC(CC(=O)O)c1ccc(N2C[C@@H](C)O[C@@H](C)C2)c(Nc2ccc(C#N)cc2)c1", "note": "(single isomer, unassigned) [Example 737]", "pIC50": "< 7.30"}, {"smiles": "CCOc1ccc(NC(=O)Nc2cc(C(COC)CC(=O)O)cc(F)c2N(CC(C)C)CC(C)C)c(F)c1", "note": "(single isomer, unassigned) [Example 1191, 3-(4-(Diisobutylamino)-3-(3-(4-ethoxy-2-fluorophenyl)ureido)-5-fluorophenyl)-4-methoxybutanoic acid]", "pIC50": "> 8.30"}, {"smiles": "COCC(CC(=O)O)c1ccc(N(CC(C)C)C2CCOCC2)c(NC(=O)Nc2ccc(Cl)cc2F)c1", "note": "(single isomer, unassigned) [Example 1210, 3-(3-(3-(4-Chloro-2-fluorophenyl)ureido)-4-(isobutyl(tetrahydro-2H-pyran-4-yl)amino)phenyl)-4-methoxybutanoic acid]", "pIC50": "> 7.30"}, {"smiles": "CC(C)CN(CC(C)C)c1c(F)cc(C(CC(=O)O)c2ccccc2)cc1Nc1ccc(Cl)cc1", "note": "(single isomer, unassigned) [Example 129, 3-(3-((4-Chlorophenyl)amino)-4-(diisobutylamino)-5-fluorophenyl)-3-phenylpropanoic acid]", "pIC50": "> 7.30"}, {"smiles": "CCc1ccc(Nc2cc(C(C)(C)CC(=O)O)ccc2N2C[C@@H](C)O[C@@H](C)C2)cc1", "note": "[Example 734, 3-(4-((2S,6R)-2,6-dimethylmorpholino)-3-((4-ethylphenyl)amino)phenyl)-3-methylbutanoic acid]", "pIC50": "< 7.30"}, {"smiles": "CCC(CC(=O)O)c1ccc(N2CCC[C@H]2C(C)(C)O)c(Nc2ccc(Cl)cc2)c1", "note": "(single isomer, unassigned) [Example 836]", "pIC50": "> 7.30"}, {"smiles": "CCC(CC(=O)O)c1cc(NC(=O)Nc2ccc3c(c2)OCO3)c(N(CC(C)C)C2CCCCC2)cc1F", "note": "(single isomer, unassigned) [Example 1111, 3-(5-(3-(Benzo[d][1,3]dioxol-5-yl)ureido)-4-(cyclohexyl(isobutyl)amino)-2-fluorophenyl)pentanoic acid]", "pIC50": "> 8.30"}, {"smiles": "CCOc1ncc(Nc2cc([C@H](CC)CC(=O)O)ccc2N(CC)C2CCOCC2)cn1", "note": "(single isomer, unassigned) [Example 498]", "pIC50": "> 8.30"}, {"smiles": "CCC(CC(=O)O)c1ccc(N(CC)C2CCCOC2)c(NC(=O)Nc2ccc(C)cc2)c1", "note": "(single isomer, unassigned) [Example 73 D3, 3-(4-(Ethyl(tetrahydro-2H-pyran-3-yl)amino)-3-(3-(p-tolyl)ureido)phenyl)pentanoic acid]", "pIC50": "> 7.30"}, {"smiles": "Cc1nc2ccc(Nc3cc(C(CC(=O)O)c4ccccc4)cc(F)c3N(CC(C)C)CC(C)C)cc2s1", "note": "(single isomer, unassigned) [Example 130, 3-(4-(Diisobutylamino)-3-fluoro-5-((2-methylbenzo[d]thiazol-6-yl)amino)phenyl)-3-phenylpropanoic acid]", "pIC50": "< 7.30"}, {"smiles": "COCC(CC(=O)O)c1ccc(N(CC(C)C)C2CCCCC2)c(NC(=O)Nc2ccc(OC)cc2F)c1", "note": "(single isomer, unassigned) [Example 1233, 3-(4-(Cyclohexyl(isobutyl)amino)-3-(3-(2-fluoro-4-methoxyphenyl)ureido)phenyl)-4-methoxybutanoic acid]", "pIC50": "> 8.30"}, {"smiles": "CCC(CC(=O)O)c1ccc(N(CC(C)C)C2CCCCC2)c(Nc2ccc(Cl)c(OC(F)F)c2)c1", "note": "(single isomer, unassigned) [Example 642]", "pIC50": "> 8.30"}, {"smiles": "CCOc1ccc(NC(=O)Nc2cc([C@H](CC)CC(=O)O)ccc2N(CC)C2CCOCC2)cc1", "note": "(single isomer, unassigned) [Example 528]", "pIC50": "> 7.30"}, {"smiles": "CCC(CC(=O)O)c1ccc(N(CC(C)C)C2CCCCC2)c(NC(=O)Cc2cc(F)ccc2F)c1", "note": "(racemic) [Example 1087]", "pIC50": "> 8.30"}, {"smiles": "CCC(CC(=O)O)c1cc(F)c(N(CC(C)C)CC(C)C)c(NC(=O)c2ccc(Cl)cc2)c1", "note": "(single isomer, unassigned) [Example 127, 3-(3-(4-Chlorobenzamido)-4-(diisobutylamino)-5-fluorophenyl)pentanoic acid]", "pIC50": "< 7.30"}, {"smiles": "CC[C@H](CC(=O)O)c1ccc(N(CC(C)(C)O)C2CCOCC2)c(Nc2ccc(Cl)cc2)c1", "note": "(single isomer, unassigned) [Example 203]", "pIC50": "> 8.30"}, {"smiles": "CC[C@@H](CC(=O)O)c1ccc(N(CC)C2CCOCC2)c(NC(=O)Nc2ccc(F)cc2)c1", "note": "(single isomer, unassigned) [Example 490]", "pIC50": "> 7.30"}, {"smiles": "CCOc1ccc(CC(=O)Nc2cc(C(COC)CC(=O)O)cc(F)c2N(CC(C)C)C2CCCCC2)cc1", "note": "(single isomer, unassigned) [Example 1168, 3-(4-(cyclohexyl(isobutyl)amino)-3-(2-(4-ethoxyphenyl)acetamido)-5-fluorophenyl)-4-methoxybutanoic acid]", "pIC50": "> 7.30"}, {"smiles": "CCc1cnc(Nc2cc([C@H](CC)CC(=O)O)ccc2N(CC)C2CCOCC2)nc1", "note": "(single isomer, unassigned) [Example 500]", "pIC50": "< 7.30"}, {"smiles": "CCC(CC(=O)O)c1ccc(N2CCC[C@H]2C(C)(C)O)c(Nc2ccnc(N3CCOCC3)n2)c1", "note": "(single isomer, unassigned) [Example 817]", "pIC50": "< 7.30"}]}]}
